According to publication PMC8533149 (Biomolecules, 2021):

test system: HIV-1 LTR-III G-quadruplex (FAM/TAMRA-labeled LTR-III); assay: FRET melting assay, LTR-III G4; assay type: binding; details: Table S1 primary screening, ligand:ODN 50:1, singlicate
Summary of the method: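 Melting is followed by FAM fluorescence (ex 495/em 520 nm) while heating at 1 °C/min from 30 to 95 °C. Labelled ODN at 0.5 μM, pre-annealed in 10 mM Li cacodylate, 100 mM KCl, pH 7.4, mixed with ligand at 50:1 (25 μM), or 20:1 and 2:1 for titration. ΔTm is relative to the 0.25% DMSO buffer control.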

Compound	LTR-III ΔTm [°C]
CC(C)OC(=O)c1noc(=O)c(O)c1-c1ccc(N(C)C)cc1 [SA 305C]	-0.6
CC(C)OC(=O)c1noc(C(=O)N2CCCC2)c1-c1ccccc1 [SA 307A]	-0.3
COc1ccc(-c2c(C(=O)OC(C)C)noc2C(=O)N2CCCC2)cc1 [SA 309]	-0.5
CNC(=O)c1onc(C(=O)OC(C)C)c1-c1ccccc1 [SA 325A]	-0.5
CC(C)OC(=O)c1noc(C(=O)NC2CCCCC2)c1-c1ccccc1 [SA 325E]	-0.6
CNC(=O)c1onc(C(=O)OC(C)C)c1-c1cccs1 [SA 330A]	-0.5
CC(C)OC(=O)c1noc(C(=O)NCc2ccccc2)c1-c1cccs1 [SA 330E]	-0.7
CNC(=O)c1onc(C(=O)OC(C)C)c1-c1ccccc1F [SA 331A]	-0.7
CC(C)OC(=O)c1noc(C(=O)NC2CCCCC2)c1-c1ccccc1F [SA 331D]	-0.7
CC(C)OC(=O)c1noc(C(=O)NCc2ccccc2)c1-c1ccccc1F [SA 331E]	-0.9
CNC(=O)c1onc(C(=O)OC(C)C)c1-c1ccc(N(C)C)cc1 [SA 332.1]	-0.4
CC(C)OC(=O)c1noc(C(=O)N2CCCC2)c1-c1ccc(N(C)C)cc1 [SA 332.2]	-0.4
CC(C)OC(=O)c1noc(C(=O)NCc2ccccc2)c1-c1ccc(N(C)C)cc1 [SA 332E1]	-0.6
C[C@H](CS)C(=O)N1CCC[C@H]1C(=O)O [SA 333]	-0.4
COc1ccc(-c2c(C(=O)OC(C)C)noc2C(=O)N2CCOCC2)cc1 [SA 341A]	-0.7
COc1ccc(-c2c(C(=O)OC(C)C)noc2C(=O)NC2CCCCC2)cc1 [SA 341B]	-0.2
COc1ccc(-c2c(C(=O)OC(C)C)noc2C(=O)NCc2ccccc2)cc1 [SA 341C]	-0.2
CC(C)OC(=O)c1noc(C(=O)N2CCOCC2)c1-c1ccc(C(C)C)cc1 [SA 342A]	-0.3
CC(C)OC(=O)c1noc(C(=O)NCc2ccccc2)c1-c1ccc(C(C)C)cc1 [SA 342B]	-0.5
CC(C)OC(=O)c1noc(C(=O)N2CCOCC2)c1-c1cccc2ccccc12 [SA 343A]	-0.4
CC(C)OC(=O)c1noc(C(=O)NCc2ccccc2)c1-c1cccc2ccccc12 [SA 343B]	-0.9

Compound	LTR-III ΔTm [°C]
CC(C)OC(=O)c1noc(C(=O)N2CCOCC2)c1-c1cccc(C(F)(F)F)c1 [SA 344A]	-0.5
CC(C)OC(=O)c1noc(C(=O)NCc2ccccc2)c1-c1cccc(C(F)(F)F)c1 [SA 344B]	-0.7
CC(C)OC(=O)c1noc(C(=O)NCc2ccccc2)c1-c1ccc(O)cc1 [SA 345B]	-0.8
COc1ccc(-c2c(C(=O)OC(C)C)noc2C(=O)NCc2ccccn2)cc1 [SA 350C]	-0.6
COc1ccc(-c2c(C(=O)OC(C)C)noc2C(=O)N2CCCCC2)cc1 [SA 375]	-0.4
COC(=O)c1ccc(C=C2N=C(C)N(C)C2=O)cc1 [SA 400]	0
COc1ccc2cc(OC)c(C=C3N=C(C)N(C)C3=O)cc2c1 [SA 410]	-0.2
CC1=NC(=Cc2ccc([N+](=O)[O-])cc2)C(=O)N1C [SA 412]	0
CC1=NC(=Cc2ccc(C#N)cc2)C(=O)N1C [SA 433]	-0.4
CC1=NC(=Cc2ccnc3ccccc23)C(=O)N1C [SA 471]	-0.1
COc1ccc(C=C2N=C(C=C(SC)c3ccccc3)N(C)C2=O)cc1 [SA 474.1]	0
CSC1=NC(=Cc2ccc(O[Si](c3ccccc3)(c3ccccc3)C(C)(C)C)cc2)C(=O)N1C [SA 497]	-0.4
CNC(=O)c1onc(C(=O)OC)c1-c1ccc(OC)cc1 [SA 561A]	-0.3
COC(=O)c1noc(C(=O)N2CCCC2)c1-c1ccc(OC)cc1 [SA 561B]	-0.6
COC(=O)c1noc(C(=O)N2CCCCC2)c1-c1ccc(OC)cc1 [SA 561C]	-1
COC(=O)c1noc(C(=O)NCc2ccccc2)c1-c1ccc(OC)cc1 [SA 561D]	-0.4
COC(=O)c1noc(C(=O)N2CCOCC2)c1-c1ccc(OC)cc1 [SA 561E]	-0.7
CCOC(=O)c1noc(=O)c(O)c1-c1ccc(OC)cc1 [SA 562B]	-1
CSC1=NC(=Cc2ccc(O)cc2)C(=O)N1C [SA 581]	1
CSC(=CC1=NC(=Cc2ccc(O)cc2)C(=O)N1C)c1ccccc1 [SA 599.21]	-0.3
COc1cc(/C=C/c2ccc(O)cc2OC)oc(=O)c1 [SAI 32]	0.4

Compound	LTR-III ΔTm [°C]
O=C1NC(=S)SC1=Cc1cc(Br)c(O)c(Br)c1 [SAI 112]	0.3
COc1cc(C=C2SC(=S)NC2=O)c(OC)cc1O [SAI 115]	-0.3
O=C1NC(=S)SC1=Cc1ccc(O)c(Br)c1 [SAI 117]	-0.2
O=C1NC(=S)SC1=Cc1cc(F)c(O)c(F)c1 [SAI 118]	0
O=C1NC(=S)SC1=Cc1ccc(O)c(C(=O)O)c1 [SAI 120]	0.6
O=C1NC(=S)SC1=Cc1ccc(O)cc1Br [SAI 122]	0.1
O=C1NC(=S)SC1=Cc1ccc(O)c(Cl)c1 [SAI 125]	0.6
O=C1NC(=S)SC1=Cc1cc(Cl)c(O)c(Cl)c1 [SAI 127]	-0.2
COc1cc(O)ccc1C=C1N=C(c2cccs2)N(C)C1=O [SH 016.3B]	0.9
CC(=O)NC(=Cc1ccccc1)C(=O)NO [SV 6]	0
CC(=O)NC(=Cc1ccc(O)cc1)C(=O)NO [SV 7]	0
CCC1=NC(=Cc2c[nH]c3ccccc23)C(=O)O1 [SV 11]	0
CCC(=O)NC(=Cc1c[nH]c2ccccc12)C(=O)NC [SV 13]	-0.1
CCC1=NC(=Cc2c[nH]c3ccccc23)C(=O)N1C [SV 14]	0
COc1ccc(C=C2N=C(C=C(OC(=O)c3ccc(C)cc3)c3ccc(C)cc3)N(C)C2=O)cc1 [SV 18]	0.4
COc1ccc(C=C2N=C(C=C(O)c3ccc(C)cc3)N(C)C2=O)cc1 [SV 29]	-0.2
COc1ccc(C=C2N=C(C=C(O)c3ccc(F)cc3)N(C)C2=O)cc1 [SV 30]	-0.4
CC1=NC(=Cc2ccccc2F)C(=O)N1C [SV 50.9]	-0.2
CC1=NC(=Cc2ccc(F)cc2)C(=O)N1C [SV 50.10]	-0.2
COc1cccc(C=C2N=C(C)N(C)C2=O)c1 [SV 50.11]	-0.2
CC1=NC(=Cc2ccc(O)c(C(=O)O)c2)C(=O)N1C [SV 51.1]	-0.4

Compound	LTR-III ΔTm [°C]
CC1=NC(=Cc2cc(Br)cc(Br)c2)C(=O)N1C [SV 51.5]	-0.3
CC1=NC(=Cc2ccc(Br)cc2)C(=O)N1C [SV 51.10]	-0.2
CC1=NC(=Cc2cccc3ccccc23)C(=O)N1C [SV 51.12]	0.4
CC1=NC(=Cc2ccc([N+](=O)[O-])c(O)c2)C(=O)N1C [SV 52.7]	-0.2
CC1=NC(=Cc2ccc(Br)c([N+](=O)[O-])c2)C(=O)N1C [SV 52.8]	0.6
COc1ccc(C=C2N=C(SC)N(C)C2=O)cc1 [VZ 1]	0.4
CC(C)(C)[Si](Oc1ccc(C=C2NC(=S)NC2=O)cc1)(c1ccccc1)c1ccccc1 [VZ 2]	-0.2
CC1=NC(=Cc2ccc3cc(N(C)C)ccc3c2)C(=O)N1C [X 001]	-0.5
CC1=NC(=Cc2ccc3cc(N4CCOCC4)ccc3c2)C(=O)N1C [X 002]	-0.6
CC1=NC(=Cc2cc3c4c(c2)CCCN4CCC3)C(=O)N1C [X 4]	1
CC1=NC(=Cc2ccc(N)c(O)c2)C(=O)N1C [X 5]	0.9
CCOC(=O)CN1C(=O)C(=Cc2ccc(Br)cc2)N=C1c1ccccc1 [X 6]	-0.1
CC1=NC(=Cc2ccc(OCc3ccccc3)cc2)C(=O)N1C [X 7]	0
C=CCOc1ccc(C=C2N=C(C)N(C)C2=O)cc1 [X 8]	0
CC1=NC(=Cc2ccc(Br)cc2)C(=O)N1Cc1ccccc1 [X 9]	-0.6
CC1=NC(=Cc2ccc(O)cc2)C(=O)N1CCCNC(=O)OC(C)(C)C [X 10]	-0.2
C=CCc1cc(C=C2N=C(C)N(C)C2=O)ccc1O [X 11]	-0.2
C#CCN1C(=O)C(=Cc2ccc(O)cc2)N=C1C [X 12]	0.2
CC(=O)Oc1ccc(C=C2N=C(C)NC2=O)cc1 [X 13]	-0.8
CC(=O)C1=NC(=Cc2ccc(O)cc2)C(=O)N1C [X 18]	0.6
